# According to paper PMC3262893 (Phytochemistry, 2011):
# pIC50: −log10 of the molar value. *1 amine or outer side, *2 acyl side, *3 side chain or, on linkers, in order; H or OH if unused. Where a SMILES comes first, the peptide text is derived from it. Bridges are numbered along the chain shown (N, C = ends). [ ]: non-standard residue; d: D form. ξ: configuration not given here. X3 = CC(=O)N(C)C(Cc1ccc(O)cc1)C(=O)OC(CC(O)C(O)CC(C)C)CC(N[*:2])C(O)C(=O)[*:1]; X2 = COc1ccc(CCC(N[*:1])C(=O)[*:2])cc1; d(aIle) = CC[C@H](C)[C@@H](N)C(=O)O; hTyr = N[C@@H](CCc1ccc(O)cc1)C(=O)O; hPhe = N[C@@H](CCc1ccccc1)C(=O)O; X1 = C/C=C(/N[*:1])C(=O)[*:2]; ξhPhe = NC(CCc1ccccc1)C(=O)O; NMeA = CN[C@@H](C)C(=O)O; CO = O=C([*:1])[*:2]
# Target: 20S proteasome, human (Homo sapiens, UniProt P28074)
# Experiment: 20S proteasome assay
# Format: biochemical
# Conditions: chymotrypsin-like activity; for 20S proteasome inhibitory activity: at 50 μM; for pIC50: read-out: 20S proteasome inhibition IC50
Structure (SMILES),20S proteasome inhibitory activity,pIC50
"CC[C@H](C)[C@@H]1NC(=O)[C@H](NC(=O)N[C@H](Cc2ccccc2)C(=O)O)CCCCNC(=O)[C@H](CCc2ccccc2)NC(=O)[C@H](C)N(C)C(=O)[C@H](CCc2ccc(O)cc2)NC1=O [compound 1, Lyngbyaureidamide A] ({dF-CO}-[dK]I[hTyr][NMeA][hPhe]; lactam 1-C)",not active,
"CC[C@H](C)[C@@H]1NC(=O)[C@H](NC(=O)N[C@H](Cc2ccccc2)C(=O)O)CCCCNC(=O)[C@H](Cc2ccccc2)NC(=O)[C@H](C)N(C)C(=O)[C@H](CCc2ccc(O)cc2)NC1=O [compound 2, Lyngbyaureidamide B] ({dF-CO}-[dK]I[hTyr][NMeA]F; lactam 1-C)",not active,
"C/C=C1/NC(=O)[C@H](CO)NC(=O)[C@@H]([C@@H](C)CC)NC(=O)[C@@H]2CCCN2C(=O)[C@@H]2CCCN2C(=O)CNC(=O)[C@H](CCC(N)=O)NC(=O)C(O)C(CC(CC(O)C(O)CC(C)C)OC(=O)C(Cc2ccc(O)cc2)N(C)C(C)=O)NC(=O)[C@@H]2CCCN2C(=O)C(CCc2ccc(OC)cc2)NC(=O)[C@H]([C@@H](C)O)NC1=O (stereo partly shown) [compound 3, Lyngbyazothrin C] (QGPP[d(aIle)]S[X1]T[X2]P; linker N-C via X3)",,5.15
"C/C=C1/NC(=O)[C@H](CO)NC(=O)[C@@H]([C@@H](C)CC)NC(=O)[C@@H]2CCCN2C(=O)[C@@H]2CCCN2C(=O)CNC(=O)[C@H](CCC(N)=O)NC(=O)C(O)C(CC(CC(O)C(O)CC(C)C)OC(=O)C(Cc2ccc(O)cc2)N(C)C(C)=O)NC(=O)[C@@H]2CCCN2C(=O)C(CCc2ccccc2)NC(=O)[C@H]([C@@H](C)O)NC1=O (stereo partly shown) [compound 4, Lyngbyazothrin D] (QGPP[d(aIle)]S[X1]T[ξhPhe]P; linker N-C via X3)",,4.72
